# From patent US6339716B1, “Method for determining viability of a myocardial segment” (Bioenergy Inc., priority 1999, dated 2002)
# Tested on: patients suspected of having stunned or hibernating myocardium
# Experiment: Dobutamine echocardiography, regional wall motion during D-Ribose or placebo infusion (randomized, double-blind, crossover clinical trial)
# Format: in vivo
# Details: during low-dose dobutamine infusion (5μ/kg/minute); D-Ribose 10% in water iv at 180 mg/kg/hour; 25 patients, 16 left ventricular segments each
# Description: A single-center, randomized, double-blind placebo-controlled clinical trial was carried out to evaluate the safety and efficacy of D-Ribose on myocardial wall motion during echocardiographic examination in patients suspected of having stunned or hibernating myocardium. Patients were randomized into placebo and ribose groups according to a computer generated randomization schedule. The identity of the contents was blinded to the investigator. Patients were identified by initials. The selected study population was comprised of 25 patients (22 men and 3 women) with a mean age of 57+/−11 years. All had reduced left ventricular systolic function (mean ejection fraction 30+/−8%, range 18 to 48%). Twenty-two patients (88%) had prior myocardial infarction and only one subject was evaluated after recent (<4 weeks) infarction. […] Post-infusion images were recorded approximately eight minutes after discontinuation of dobutamine. […] Parasternal long and short-axis and apical two and four-chamber images were recorded on 0.5 inch videotape and digitally stored on floppy discs using a Nova MicroSonics DCR or Colorvue system (Mahwah, N.J.). […]
smiles,measurement,value
O=C[C@H](O)[C@H](O)[C@H](O)CO [D-Ribose],segments in which wall motion improved,65 segments
